For 9 molecules, IC50 and melting point results are on record in paper PMC10482942, “Novel quinazoline-1,2,3-triazole hybrids with anticancer and MET kinase targeting properties” (Scientific Reports, 2023).

For one data set, the system named is AsPC-1 cells. In words: SRB antiproliferative assay, monolayer culture. It counts as cell-based, human. To be noted: mean ± S.E.M. On the procedure: (§1) EBC-1 (human lung […] cells with MET gene amplification) and Mia-Paca-2 (human PDAC cells) were obtained from Japanese Collection of Research Bio Resources Cell Bank (JCRB). AsPC-1 (human PDAC), MKN-45 (human gastric adenocarcinoma cells with MET gene amplification), HT-29 (human colorectal adenocarcinoma), and K562 cells (human chronic myelogenous leukemia) were obtained from the Iranian Biological Resource Centre, Tehran, Iran. AsPC-1, EBC-1, MKN-45, and K562 cells were cultured in RPMI 1640 medium containing 10% heat-inactivated fetal bovine serum (FBS) and 1% penicillin/streptomycin. Mia-Paca-2 and HT-29 cells were grown in DMEM low glucose, containing 10% and 20% heat-inactivated FBS, resoectively and 100 U/ml penicillin/streptomycin. All cells were grown in monolayer cultures at 37 °C in a humidified incubator with 5% CO2.
(§2) Antiproliferative effects of synthetic compounds were evaluated by the SRB assay as described previously. Cancer cells were trypsinized, homogenous cell suspensions were prepared and 100 µl of cell suspensions were cultured at the densities of 5 × 10^4 cells/ml (for AsPC-1 and Mia-Paca-2), 4 × 10^4 cells/m (for EBC-1 and MKN-45), 3 × 10^4 cells/ml (for K562) and 1 × 10^4 cells/ml (for HT-29) in 96-well flat-bottom plates. After 24 h of incubation to allow cells to attach and resume optimal growth, the synthetic compounds dissolved in DMSO and diluted in the growth medium were added. One hundred µl of synthesized derivatives were added at different concentrations in triplicate and incubated for an additional 72 h at 37 °C. The cells were then fixed by gentle addition of 50 μl cold trichloroacetic acid (TCA) 50% (w/v, 10% final concentration) and incubated for 60 min at 4 °C. Then, the supernatant was discarded, and the plates were washed four times with distilled water and air dried. Afterwards, 100 μl of SRB solution 0.04% (w/v) dissolved in 1% acetic acid was added to each well, and plates were incubated for 15 min at room temperature. At the next step, the unbound dye was removed by washing four times with 1% acetic acid and the plates were air dried. The bound stain was finally solubilized with 150 μl of 10 mM Tris base solution, and the absorbance was recorded at a wavelength of 540 nm with a Bio-Tek microplate reader (Model Synergy HTX).
On the technique in general: In SRB staining, fixed cells bind dye roughly in proportion to their protein.

A further data set concerns EBC-1 cells. In words: SRB antiproliferative assay, monolayer culture. The conditions noted are these: mean ± S.E.M. It counts as cell-based, human. The procedure: as §1, §2
In another data set the test system is HT-29 cells. In words: SRB antiproliferative assay, monolayer culture. It counts as cell-based, human. The conditions noted are these: mean ± S.E.M. On the procedure: as §1, §2
A further data set deals with K562 cells. In words: SRB antiproliferative assay, monolayer culture. It counts as cell-based, human. The conditions noted are these: mean ± S.E.M. On the procedure: as §1, §2
The subject of a further data set is MKN-45 cells. In words: SRB antiproliferative assay, monolayer culture. Type of data set: cell-based, human. To be noted: mean ± S.E.M. On the procedure: as §1, §2
The next data set deals with Mia-Paca-2 cells. In words: SRB antiproliferative assay, monolayer culture. It counts as cell-based, human. To be noted: mean ± S.E.M. The procedure:
as §1, §2

Regarding `COc1cc2nccc(Oc3ccc(NC(=O)C4(C(=O)Nc5ccc(F)cc5)CC4)cc3)c2cc1OC` [Cabozantinib, reference compound], the IC50 in the data set with AsPC-1 cells (Homo sapiens, ASPC1, 72 h) amounted to 1.4 ± 0.1 µM; with EBC-1 cells (Homo sapiens, EBC-1, 72 h) it was 0.059 ± 0.014 µM; in the data set with HT-29 cells (Homo sapiens, HT-29, 72 h), 3.7 ± 0.67 µM; with K562 cells (Homo sapiens, K562, 72 h), 4 ± 1 µM; with MKN-45 cells (Homo sapiens, MKN-45, 72 h) it was 1.04 ± 0.06 µM; in the data set with Mia-Paca-2 cells (Homo sapiens, MIA PaCa-2, 72 h) it was 3.8 ± 0.6 µM.

In turn, `Brc1ccc(Cn2cc(COc3ccc(C=NNc4ncnc5ccccc45)cc3)nn2)cc1` [Compound 8a, 2-(4-((1-(4-Bromobenzyl)-1H-1,2,3-triazol-4-yl)methoxy)benzylidene)-1-(quinazolin-4-yl)hydrazine] displayed a melting point of 207.3 °C. Also, in the data set on AsPC-1 cells (Homo sapiens, ASPC1, 72 h), the IC50 was greater than 100 µM. The IC50 with EBC-1 cells (Homo sapiens, EBC-1, 72 h) is greater than 100 µM. Further, the IC50 in the data set on HT-29 cells (Homo sapiens, HT-29, 72 h) was greater than 100 µM. In addition, the IC50 in the data set with K562 cells (Homo sapiens, K562, 72 h) turned out to be 57.4 ± 21.9 µM. Also, the IC50 with MKN-45 cells (Homo sapiens, MKN-45, 72 h) is greater than 100 µM. For the same molecule, in the data set on Mia-Paca-2 cells (Homo sapiens, MIA PaCa-2, 72 h), the IC50 was greater than 100 µM.

`Fc1ccc(Cn2cc(COc3ccc(C=NNc4ncnc5ccccc45)cc3)nn2)cc1` [Compound 8b, 2-(4-((1-(4-Fluorobenzyl)-1H-1,2,3-triazol-4-yl)methoxy)benzylidene)-1-(quinazolin-4-yl)hydrazine] yielded a melting point of 204.9 °C. For the same molecule, the IC50 with AsPC-1 cells (Homo sapiens, ASPC1, 72 h) is greater than 100 µM. Further, in the data set on EBC-1 cells (Homo sapiens, EBC-1, 72 h), the IC50 was greater than 100 µM. Moreover, in the data set on HT-29 cells (Homo sapiens, HT-29, 72 h), the half-maximal inhibitory concentration (IC50) was greater than 100 µM. In addition, the IC50 in the data set with K562 cells (Homo sapiens, K562, 72 h) was greater than 100 µM. Moreover, in the data set with MKN-45 cells (Homo sapiens, MKN-45, 72 h), the half-maximal inhibitory concentration (IC50) is greater than 100 µM. For the same molecule, the IC50 in the data set on Mia-Paca-2 cells (Homo sapiens, MIA PaCa-2, 72 h) is greater than 100 µM.

`Clc1ccc(Cn2cc(COc3ccc(C=NNc4ncnc5ccccc45)cc3)nn2)cc1Cl` [Compound 8d, 2-(4-((1-(3,4-Dichlorobenzyl)-1H-1,2,3-triazol-4-yl)methoxy)benzylidene)-1-(quinazolin-4-yl)hydrazine] registered a melting point of 224.6 °C. For the same molecule, in the data set with AsPC-1 cells (Homo sapiens, ASPC1, 72 h), the IC50 is greater than 100 µM. Also, the IC50 with EBC-1 cells (Homo sapiens, EBC-1, 72 h) is greater than 100 µM. In the data set with HT-29 cells (Homo sapiens, HT-29, 72 h), the IC50 was 93.4 ± 2.2 µM. In addition, in the data set on K562 cells (Homo sapiens, K562, 72 h), the IC50 was greater than 100 µM. In addition, the IC50 in the data set with MKN-45 cells (Homo sapiens, MKN-45, 72 h) came to 83.6 ± 6 µM. For the same molecule, the concentration for half-maximal inhibition (IC50) in the data set with Mia-Paca-2 cells (Homo sapiens, MIA PaCa-2, 72 h) is greater than 100 µM.

Turning to `Clc1ccc(Cn2cc(COc3ccc(C=NNc4ncnc5ccccc45)cc3)nn2)cc1` [Compound 8e, 2-(4-((1-(4-Chlorobenzyl)-1H-1,2,3-triazol-4-yl)methoxy)benzylidene)-1-(quinazolin-4-yl)hydrazine], the IC50 with AsPC-1 cells (Homo sapiens, ASPC1, 72 h) was greater than 100 µM; in the data set with EBC-1 cells (Homo sapiens, EBC-1, 72 h), greater than 100 µM; with HT-29 cells (Homo sapiens, HT-29, 72 h), greater than 100 µM; in the data set on K562 cells (Homo sapiens, K562, 72 h), 61.5 ± 21.6 µM; in the data set with MKN-45 cells (Homo sapiens, MKN-45, 72 h) it was greater than 100 µM; in the data set on Mia-Paca-2 cells (Homo sapiens, MIA PaCa-2, 72 h) it was greater than 100 µM.

As for `O=[N+]([O-])c1ccc(Cn2cc(COc3ccc(C=NNc4ncnc5ccccc45)cc3)nn2)cc1` [Compound 8f, 2-(4-((1-(4-Nitrobenzyl)-1H-1,2,3-triazol-4-yl)methoxy)benzylidene)-1-(quinazolin-4-yl)hydrazine], the melting point came to 208.4 °C. For the same molecule, the IC50 in the data set with AsPC-1 cells (Homo sapiens, ASPC1, 72 h) is greater than 100 µM. Further, the IC50 with EBC-1 cells (Homo sapiens, EBC-1, 72 h) was greater than 100 µM. Further, the IC50 in the data set with HT-29 cells (Homo sapiens, HT-29, 72 h) was greater than 100 µM. In addition, in the data set on K562 cells (Homo sapiens, K562, 72 h), the IC50 is greater than 100 µM. Further, the IC50 with MKN-45 cells (Homo sapiens, MKN-45, 72 h) came out at 56.6 ± 6.5 µM. Further, the 50% inhibitory concentration (IC50) with Mia-Paca-2 cells (Homo sapiens, MIA PaCa-2, 72 h) is greater than 100 µM.

For `C(=NNc1ncnc2ccccc12)c1ccc(OCc2cn(Cc3ccccc3)nn2)cc1` [Compound 8g, 2-(4-((1-Benzyl-1H-1,2,3-triazol-4-yl)methoxy)benzylidene)-1-(quinazolin-4-yl)hydrazine], the melting point stood at 218.6 °C. Moreover, the concentration for half-maximal inhibition (IC50) in the data set on AsPC-1 cells (Homo sapiens, ASPC1, 72 h) was greater than 100 µM. Moreover, the half-maximal inhibitory concentration (IC50) in the data set with EBC-1 cells (Homo sapiens, EBC-1, 72 h) was greater than 100 µM. Also, the 50% inhibitory concentration (IC50) in the data set on HT-29 cells (Homo sapiens, HT-29, 72 h) was greater than 100 µM. Moreover, the IC50 in the data set on K562 cells (Homo sapiens, K562, 72 h) is 96.6 ± 1.1 µM. Also, the IC50 with MKN-45 cells (Homo sapiens, MKN-45, 72 h) is 67.7 ± 4.6 µM. Further, the IC50 in the data set with Mia-Paca-2 cells (Homo sapiens, MIA PaCa-2, 72 h) was greater than 100 µM.

Turning to `O=C1c2ccccc2C(=O)N1CCCn1cc(COc2ccccc2C=NNc2ncnc3ccccc23)nn1` [Compound 8i], the IC50 in the data set on AsPC-1 cells (72 h) was greater than 100 µM; in the data set with EBC-1 cells (72 h), 89.4 ± 4.3 µM; in the data set with HT-29 cells (72 h), greater than 100 µM; in the data set on K562 cells (72 h) it was 86.2 ± 3 µM; in the data set on MKN-45 cells (72 h), greater than 100 µM; in the data set on Mia-Paca-2 cells (72 h), greater than 100 µM.

For `C[C@@H](Oc1cc(-c2cnn(C3CCNCC3)c2)cnc1N)c1c(Cl)ccc(F)c1Cl` [Crizotinib, reference compound], the IC50 in the data set on AsPC-1 cells (Homo sapiens, ASPC1, 72 h) came out at 2.45 ± 1.3 µM; in the data set on EBC-1 cells (Homo sapiens, EBC-1, 72 h), 0.006 ± 0.001 µM; with MKN-45 cells (Homo sapiens, MKN-45, 72 h) it was 0.05 ± 0.003 µM; in the data set on Mia-Paca-2 cells (Homo sapiens, MIA PaCa-2, 72 h), 2.36 ± 1.2 µM.

By IC50 is commonly meant the concentration at which inhibition is half-maximal. As a reminder, the melting point is the temperature of the solid-liquid transition.
